This note sets out measurements from US10317417B2, “Buccal cell diagnosis of arrhythmogenic cardiomyopathy (ACM)” (Beth Israel Deaconess Medical Center, Inc., priority 2015, dated 2019).

For this experiment, the system named is cultured buccal mucosa cells from ACM patients and gene carriers. The experiment is described as follows: Immunostaining of cultured buccal mucosa cells after incubation with SB216763. It counts as cell-based, human. Also noted: dose or concentration left out as unconfirmed. The following applies: cultured buccal mucosa cells from ACM patients and unaffected gene carriers, confocal microscopy. As to the method:
The oral cavity was first rinsed thoroughly with antiseptic mouthwash. Buccal mucosa cells were collected with a sterile toothbrush which was lightly scraped on the inside of both cheeks for ˜2 minutes. The oral cavity was washed with 15 ml of sterile saline which was collected in a centrifuge tube. The toothbrush itself was washed in an additional 10 ml of saline. The same process was repeated one or more times. The resultant cell suspension was centrifuged at 3000 g for 5 minutes. The pellet was washed once in sterile PBS, re-centrifuged and subsequently re-suspended in 20 ml of PBS supplemented with 5% penicillin/streptomycin and 7 mM fungizone for 30 minutes. The cells were then washed twice in PBS, reconstituted in KGM™-CD chemically defined keratinocyte growth medium (LONZA) and seeded on matrigel-coated chamber slides, where they were maintained at 37° C., 5% CO2 for up to 7 days. Selected cultures were incubated with SB216763 ([…]) for 24 hours prior to immunostaining. Buccal mucosa cultures were washed in PBS, fixed in 4% paraformaldehyde and, after being washed 3 additional times in PBS, were immunostained as described above with mouse monoclonal anti-plakoglobin (Sigma) or mouse monoclonal anti-Cx43 (Millipore) primary antibodies. All immunostained preparations were imaged at 40× using a ZEISS inverted confocal microscope.

Regarding `Cn1cc(C2=C(c3ccc(Cl)cc3Cl)C(=O)NC2=O)c2ccccc21` [SB216763], the Cx43 signal distribution result is “normalized” and the plakoglobin signal distribution entry is reported as “normalized”.
